Results: the supplement of paper PMC10307832

Columns and labels:
Assay in all cases: relative viability (nuclei count vs DMSO), 5 days (fraction); higher = more cells survive
AZ505 + Lapatinib = compound: C1CCC(CC1)N(CCNCCC2=C3C(=C(C=C2)O)NC(=O)CO3)C(=O)CCNCCC4=CC(=C(C=C4)Cl)Cl [AZ505] + CS(=O)(=O)CCNCc1ccc(-c2ccc3ncnc(Nc4ccc(OCc5cccc(F)c5)c(Cl)c4)c3c2)o1 [Lapatinib] (partner 2 µM)
Method in brief: (§1)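 Relative viability divides the nuclei count in treated wells by that in vehicle wells. Lung cancer cell lines were seeded in 1536-well plates, dosed by pin tool the next day, and fixed and stained after 5 days in one step with final 0.05% Triton X-100, 1% formaldehyde and 1 ug/ml Hoechst. Dosing was a single drug or a fixed anchor-drug dose plus five library-drug doses (not always all listed) in √10 steps, and values are medians of duplicate plates imaged at 4×.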

Dactolisib + Palbociclib = compound: Cn1c(=O)n(-c2ccc(C(C)(C)C#N)cc2)c2c3cc(-c4cnc5ccccc5c4)ccc3ncc21 [Dactolisib] + CC(=O)c1c(C)c2cnc(Nc3ccc(N4CCNCC4)cn3)nc2n(C2CCCC2)c1=O [Palbociclib] (partner 0.5 µM)
Method in brief: as §1

Dactolisib + Luminespib = compound: Cn1c(=O)n(-c2ccc(C(C)(C)C#N)cc2)c2c3cc(-c4cnc5ccccc5c4)ccc3ncc21 [Dactolisib] + CCNC(=O)c1noc(-c2cc(C(C)C)c(O)cc2O)c1-c1ccc(CN2CCOCC2)cc1 [Luminespib] (partner 0.01 µM)
Method in brief: as §1

Dactolisib + Phenformin = compound: Cn1c(=O)n(-c2ccc(C(C)(C)C#N)cc2)c2c3cc(-c4cnc5ccccc5c4)ccc3ncc21 [Dactolisib] + N=C(N)NC(=N)NCCc1ccccc1 [Phenformin] (partner 250 µM)
Method in brief: as §1

| Cell Line | relative viability (AZ505 + Lapatinib; first compound 0.08 µM) | relative viability (AZ505 + Lapatinib; first compound 0.253 µM) | relative viability (AZ505 + Lapatinib; first compound 0.8 µM) | relative viability (AZ505 + Lapatinib; first compound 2.53 µM) | relative viability (AZ505 + Lapatinib; first compound 8 µM) | relative viability (Dactolisib + Palbociclib; first compound 0.002 µM) | relative viability (Dactolisib + Palbociclib; first compound 0.006325 µM) | relative viability (Dactolisib + Palbociclib; first compound 0.02 µM) | relative viability (Dactolisib + Palbociclib; first compound 0.06325 µM) | relative viability (Dactolisib + Palbociclib; first compound 0.2 µM) | relative viability (Dactolisib + Luminespib; first compound 0.002 µM) | relative viability (Dactolisib + Luminespib; first compound 0.006325 µM) | relative viability (Dactolisib + Luminespib; first compound 0.02 µM) | relative viability (Dactolisib + Luminespib; first compound 0.06325 µM) | relative viability (Dactolisib + Luminespib; first compound 0.2 µM) | relative viability (Dactolisib + Phenformin; first compound 0.002 µM) | relative viability (Dactolisib + Phenformin; first compound 0.006325 µM) | relative viability (Dactolisib + Phenformin; first compound 0.02 µM) | relative viability (Dactolisib + Phenformin; first compound 0.06325 µM) | relative viability (Dactolisib + Phenformin; first compound 0.2 µM) |
| --- | --- | --- | --- | --- | --- | --- | --- | --- | --- | --- | --- | --- | --- | --- | --- | --- | --- | --- | --- | --- |
| PC-3 [JPC-3] | 0.456 | 0.455 | 0.476 | 0.426 | 0.495 | 0.596 | 0.544 | 0.59 | 0.511 | 0.418 | 0.759 | 0.639 | 0.683 | 0.472 | 0.48 | 0.494 | 0.485 | 0.475 | 0.47 | 0.469 |
| EMC-BAC-2 | 0.819 | 0.905 | 0.814 | 0.837 | 0.904 | 0.563 | 0.486 | 0.461 | 0.324 | 0.29 | 1.15 | 1.14 | 1.1 | 0.875 | 0.556 | 0.51 | 0.529 | 0.519 | 0.336 | 0.251 |
| LK-2 | 0.777 | 0.837 | 1 | 1.05 | 1.03 | 0.513 | 0.653 | 0.491 | 0.212 | 0.167 | 0.152 | 0.198 | 0.195 | 0.171 | 0.197 | 0.297 | 0.324 | 0.248 | 0.146 | 0.114 |
| NCI-H2126 | 0.758 | 0.78 | 0.767 | 0.639 | 0.701 | 0.369 | 0.359 | 0.33 | 0.352 | 0.316 | 0.803 | 0.868 | 0.809 | 0.334 | 0.296 | 0.562 | 0.513 | 0.534 | 0.435 | 0.366 |
| NCI-H3122 | 1.01 | 1.03 | 1.04 | 0.981 | 1.09 | 0.18 | 0.198 | 0.173 | 0.16 | 0.137 | 0.134 | 0.0901 | 0.104 | 0.0762 | 0.085 | 0.381 | 0.385 | 0.416 | 0.378 | 0.317 |
| HCC-78 |  | 0.643 | 0.645 | 1.2 | 0.86 | 0.46 | 0.453 | 0.479 | 0.475 | 0.441 |  |  |  |  |  | 0.912 | 0.771 | 0.63 | 0.495 | 0.319 |
| NCI-H1299 | 0.918 | 1.05 | 0.923 | 0.897 | 0.978 |  |  |  |  |  |  |  |  |  |  |  |  |  |  |  |
| LCLC-103H |  |  |  |  |  | 0.483 | 0.494 | 0.45 | 0.414 | 0.373 | 1.03 | 0.905 | 0.844 | 0.483 | 0.444 | 0.369 | 0.321 | 0.345 | 0.317 | 0.291 |
| ChaGo-K-1 |  |  |  |  |  | 0.93 | 0.958 | 0.88 | 0.84 | 0.85 | 0.622 | 0.562 | 0.582 | 0.39 | 0.463 | 0.457 | 0.457 | 0.464 | 0.374 | 0.444 |
| SW 900 |  |  |  |  |  | 0.683 | 0.46 | 0.45 | 0.248 | 0.199 | 0.17 | 0.2 | 0.157 | 0.174 | 0.169 | 0.67 | 0.536 | 0.591 | 0.288 | 0.198 |
| NCI-H596 | 0.977 | 0.94 | 0.885 | 0.876 | 1.05 |  |  |  |  |  | 0.925 | 0.938 | 0.583 | 0.347 | 0.28 | 0.738 | 0.767 | 0.627 | 0.468 | 0.372 |
| NCI-H1563 | 0.836 | 0.882 | 0.998 | 0.865 | 0.905 |  |  |  |  |  | 0.535 | 0.532 | 0.511 | 0.47 | 0.507 | 0.674 | 0.622 | 0.626 | 0.61 | 0.54 |
| A549 | 0.916 | 0.931 | 0.966 | 0.929 | 0.955 |  |  |  |  |  |  |  |  |  |  | 0.183 | 0.153 | 0.172 | 0.103 | 0.0668 |
| NCI-H2342 |  |  |  |  |  | 0.556 | 0.535 | 0.505 | 0.454 | 0.466 | 0.677 | 0.634 | 0.653 | 0.495 | 0.437 | 0.492 | 0.64 | 0.54 | 0.559 | 0.525 |
| NCI-H1623 |  |  |  |  |  |  |  |  |  |  | 0.604 | 0.491 | 0.462 | 0.308 | 0.275 | 0.618 | 0.628 | 0.561 | 0.585 | 0.438 |
| NCI-H522 |  |  |  |  |  | 0.924 | 1 | 0.99 | 0.754 | 0.674 | 1.15 | 1.17 | 1.22 | 0.659 | 0.596 | 0.591 | 0.647 | 0.548 | 0.535 | 0.631 |
| IA-LM | 0.629 | 0.935 | 0.912 | 0.656 | 0.884 |  |  |  |  |  |  |  |  |  |  |  |  |  |  |  |
| EBC-1 | 0.267 | 0.243 | 0.194 | 0.19 | 0.219 |  |  |  |  |  |  |  |  |  |  |  |  |  |  |  |
